Measurements as given in patent US20230044958A1, “METHOD OF TREATING VIRUS INFECTION USING A TLR7 AGONIST” (Hoffmann-La Roche Inc., priority 2019, published 2023).

Legend:
HBV [1] = test: Treatment of HBV-infected patients with Compound (I), alone or in combination; assay type: in vivo, human
Source text: (§1) In this invention, methods of the entire treatment comprising Compound (I) monotherapy or Compound (I) in combination with other anti-HBV drug(s) for 24-120 weeks were developed.
Furthermore, treatment method of Compound (I) in combination with other anti-HBV drugs results in significant hepatitis B surface antigen (HBsAg) decline or loss. […] However, the method of treatment of this invention with Compound (I) can also induce robust HBV DNA and HBV RNA decline in such patients.

[2] = Safety and tolerability of Compound (I) in chronic hepatitis B patients; assay type: in vivo, human
Source text: as §1

HBV [3] = conditions: cited from earlier work
[4] = patients under the treatment methods of the invention

SMILES	hepatitis B surface antigen (HBsAg) decline or loss (HBV [1]; Compound (I) in combination with other anti-HBV drugs)	HBV DNA decline (HBV [1]; [4])	HBV RNA decline (HBV [1]; [4])	safety and tolerability [2]	HBsAg decline (HBV [3]; weekly dosing for 4, 8, 12 weeks, virally suppressed patients with chronic hepatitis B)	change in HBsAg after treatment (HBV [3]; weekly dosing for 12 weeks in combination with tenofovir disoproxil fumarate, viremic CHB patients not on oral antiviral treatment)
CC[C@H](OC(C)=O)[C@@H]1C[C@@H](O)[C@H](n2c(=O)sc3cnc(N)nc32)O1 [Compound (I), (1S)-1-[(2S,4R,5R)-5-(5-amino-2-oxo-thiazolo[4,5-d]pyrimidin-3-yl)-4-hydroxy-tetrahydrofuran-2-yl]propyl] acetate]	significant	robust	robust	safe and well tolerated		
CCCCOc1nc(N)c2c(n1)N(Cc1cccc(CN3CCCC3)c1)CC(=O)N2 [Vesatolimod]					did not show HBsAg decline	did not demonstrate any meaningful change in HBsAg
